“And” between values parts separate entries of the source, which are not always exact repeats. Equal values may be shown once.
Conditions: Frequency=8 MHz, Dual path-length method

CC(C)C [2-methylpropane]
Conditions | speed of sound
360 K, 40132 kPa, Liquid | 981.26 m/s
360 K, 45135 kPa, Liquid | 1019.4 m/s
360 K, 50136 kPa, Liquid | 1055.2 m/s
360 K, 50137 kPa, Liquid | 1055.2 m/s
360 K, 50138 kPa, Liquid | 1055.2 m/s
360 K, 60146 kPa, Liquid | 1121 m/s
360 K, 70152 kPa, Liquid | 1180.7 m/s
360 K, 80159 kPa, Liquid | 1235.6 m/s
360 K, 90166 kPa, Liquid | 1286.5 m/s
360 K, 100173 kPa, Liquid | 1334.2 m/s
380 K, 3104.5 kPa, Liquid | 378.47 m/s
380 K, 3604.1 kPa, Liquid | 399.56 m/s
380 K, 4105.2 kPa, Liquid | 418.49 m/s
380 K, 5105.8 kPa, Liquid | 451.63 m/s
380 K, 6106.5 kPa, Liquid | 480.42 m/s
380 K, 7107.2 kPa, Liquid | 506.13 m/s
380 K, 8107.8 kPa, Liquid | 529.51 m/s
380 K, 8109.6 kPa, Liquid | 529.52 m/s
380 K, 9107.5 kPa, Liquid | 551.1 m/s
380 K, 9107.9 kPa, Liquid | 551.06 m/s
380 K, 10108 kPa, Liquid | 571.15 m/s
380 K, 10111 kPa, Liquid | 571.16 m/s
380 K, 12610 kPa, Liquid | 616.32 m/s
380 K, 15112 kPa, Liquid | 656.14 m/s
380 K, 15114 kPa, Liquid | 656.15 m/s
380 K, 17614 kPa, Liquid | 692.04 m/s
380 K, 20115 kPa, Liquid | 724.92 m/s
380 K, 20116 kPa, Liquid | 724.9 m/s
380 K, 25120 kPa, Liquid | 783.75 m/s
380 K, 25121 kPa, Liquid | 783.75 m/s
380 K, 30123 kPa, Liquid | 835.78 m/s
380 K, 35127 kPa, Liquid | 882.76 m/s
380 K, 40130 kPa, Liquid | 925.81 m/s
380 K, 45134 kPa, Liquid | 965.68 m/s
380 K, 50137 kPa, Liquid | 1003 m/s
380 K, 60144 kPa, Liquid | 1071.2 m/s
380 K, 70152 kPa, Liquid | 1132.8 m/s
380 K, 80160 kPa, Liquid | 1189.2 m/s
380 K, 90167 kPa, Liquid | 1241.4 m/s
380 K, 100174 kPa, Liquid | 1290.2 m/s
380.01 K, 20115 kPa, Liquid | 724.92 m/s
380.01 K, 50136 kPa, Liquid | 1002.9 m/s
400 K, 4606.1 kPa, Liquid | 309.14 m/s
400 K, 5106.4 kPa, Liquid | 334.25 m/s
400 K, 6107.2 kPa, Liquid | 375.6 m/s
400 K, 7108.1 kPa, Liquid | 409.76 m/s
400 K, 8108.8 kPa, Liquid | 439.33 m/s
400 K, 8109.3 kPa, Liquid | 439.33 m/s
400 K, 9109.5 kPa, Liquid | 465.69 m/s
400 K, 10110 kPa, Liquid | 489.63 m/s
400 K, 10111 kPa, Liquid | 489.63 m/s
400 K, 12612 kPa, Liquid | 541.93 m/s
400 K, 15114 kPa, Liquid | 586.71 m/s and 586.72 m/s
400 K, 17616 kPa, Liquid | 626.34 m/s
400 K, 20117 kPa, Liquid | 662.12 m/s
400 K, 25122 kPa, Liquid | 725.35 m/s
400 K, 30126 kPa, Liquid | 780.54 m/s
400 K, 35129 kPa, Liquid | 829.95 m/s
400 K, 40132 kPa, Liquid | 874.94 m/s
400 K, 45136 kPa, Liquid | 916.42 m/s
400 K, 50139 kPa, Liquid | 955.05 m/s
400 K, 60146 kPa, Liquid | 1025.5 m/s
400 K, 70153 kPa, Liquid | 1088.7 m/s
400 K, 80160 kPa, Liquid | 1146.5 m/s
400 K, 90167 kPa, Liquid | 1199.9 m/s
400 K, 100174 kPa, Liquid | 1249.7 m/s
420 K, 6107.4 kPa, Gas | 266.66 m/s
420 K, 7108.4 kPa, Gas | 314.01 m/s
420 K, 8109.2 kPa, Gas | 351.95 m/s
420 K, 9110 kPa, Gas | 384.27 m/s
420 K, 10111 kPa, Gas | 412.72 m/s
420 K, 12613 kPa, Gas | 472.84 m/s
420 K, 15115 kPa, Gas | 522.73 m/s
420 K, 17617 kPa, Gas | 566.03 m/s
420 K, 20119 kPa, Gas | 604.64 m/s
420 K, 25122 kPa, Gas | 671.99 m/s
420 K, 30126 kPa, Gas | 730.1 m/s
420 K, 35129 kPa, Gas | 781.73 m/s
420 K, 40133 kPa, Gas | 828.47 m/s
420 K, 45136 kPa, Gas | 871.4 m/s
420 K, 50140 kPa, Gas | 911.24 m/s
420 K, 60146 kPa, Gas | 983.6 m/s
420 K, 70153 kPa, Gas | 1048.4 m/s
420 K, 80160 kPa, Gas | 1107.4 m/s
420 K, 90167 kPa, Gas | 1161.8 m/s
420 K, 100174 kPa, Gas | 1212.4 m/s
